Reference: patent US10954252B1, “Inhibitors of human immunodeficiency virus replication” (ViiV HEALTHCARE UK (NO.5) LIMITED, priority 2017, dated 2021)

Tests used:
[1] = system: recombinant NL4-3 virus (nef section replaced with Renilla luciferase gene) in MT-2 cells; test: HIV cell culture assay (antiviral activity, luciferase readout); assay type: cell-based; settings: Renilla, MT-2 cells infected for 4-5 days with recombinant NL4-3 luciferase virus
How it was run: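 Serially diluted compounds were present throughout a 4-5 day infection of MT-2 cells by recombinant NL4-3 whose nef region partly encodes Renilla luciferase. Antiviral activity was taken from live-cell luciferase signal, with the 50% effective concentration fitted by the exponential median effect equation.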

[2] = Compound cytotoxicity, XTT-based colorimetric assay; assay type: cell-based; settings: human, uninfected MT2 cells
How it was run: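 XTT colorimetric read-out on day 4 gave CC50 values, using MT2 cells left uninfected but otherwise handled as in the antiviral assay.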

| Compound | EC50 ([1]; NL43, Table 1) [nM] | CC50 at 4 days ([2]; Table 1, day 4, XTT) [nM] | EC50 ([1]; NL43, Table 1a) [nM] | CC50 at 4 days ([2]; Table 1a, day 4, XTT) [nM] |
| --- | --- | --- | --- | --- |
| CC(C)S(=O)(=O)NC(=O)c1cc(-c2cc3[nH]ncc3nc2[C@H](Cc2cc(F)cc(F)c2)NC(=O)Cn2nc(C(F)F)c3c2C(F)(F)[C@@H]2C[C@H]32)ccc1F [Example 10.27, 5-(5-((S)-1-(2-((3bS,4aR)-3-(difluoromethyl)-5,5-difluoro-3b,4,4a,5-tetrahydro-1H-cyclopropa[3,4]cyclopenta[1,2-c]pyrazol-1-yl)acetamido)-2-(3,5-difluorophenyl)ethyl)-1H-pyrazolo[4,3-b]pyridin-6-yl)-2-fluoro-N-(isopropylsulfonyl)benzamide] | 820 | > 10000 |  |  |
| O=C(Cn1nc(C(F)F)c2c1C(F)(F)[C@@H]1C[C@H]21)N[C@@H](Cc1cc(F)cc(F)c1)c1nc2cn[nH]c2cc1-c1ccc(F)c(C(=O)NS(=O)(=O)C2CC2)c1 [Example 10.28, N-(cyclopropylsulfonyl)-5-(5-((S)-1-(2-((3bS,4aR)-3-(difluoromethyl)-5,5-difluoro-3b,4,4a,5-tetrahydro-1H-cyclopropa[3,4]cyclopenta[1,2-c]pyrazol-1-yl)acetamido)-2-(3,5-difluorophenyl)ethyl)-1H-pyrazolo[4,3-b]pyridin-6-yl)-2-fluorobenzamide] | 510 | > 10000 |  |  |
| COc1ccc(-n2c([C@H](Cc3cc(F)cc(F)c3)NC(=O)Cc3c[nH]c4ccc(O)cc34)nc3ccccc3c2=O)cc1 [Example 10.30] | 8 | > 10000 |  |  |
| COc1ccc(-n2c([C@H](Cc3cc(F)cc(F)c3)NC(=O)Cn3nc(C(F)F)c4c3C(F)(F)[C@@H]3C[C@H]43)nc3ccccc3c2=O)cc1 [Example 10.31] | 18 | > 10000 |  |  |
| CC(C)c1ccc(-c2c([C@H](Cc3cc(F)cc(F)c3)NC(=O)Cn3nc(C(F)F)c4c3C(F)(F)[C@@H]3C[C@H]43)nc3ncnn3c2N)cn1 [Example 10.32, N—((S)-1-(7-amino-6-(6-isopropylpyridin-3-yl)-[1,2,4]triazolo[1,5-a]pyrimidin-5-yl)-2-(3,5-difluorophenyl)ethyl)-2-((3bS,4aR)-3-(difluoromethyl)-5,5-difluoro-3b,4,4a,5-tetrahydro-1H-cyclopropa[3,4]cyclopenta[1,2-c]pyrazol-1-yl)acetamide] | 54 | > 10000 |  |  |
| CC(C)c1ccc(-n2c([C@H](Cc3cc(F)cc(F)c3)NC(=O)Cc3c[nH]c4ccc(O)cc34)nc3ccccc3c2=O)cn1 [Example 10.33] | 49 | > 10000 |  |  |
| CC(C)c1ccc(-n2c([C@H](Cc3cc(F)cc(F)c3)NC(=O)Cn3nc(C(F)F)c4c3C(F)(F)[C@@H]3C[C@H]43)nc3ccccc3c2=O)cn1 [Example 10.34] | 15 | 7900 |  |  |
| CC(C)c1ccc(-n2c([C@H](Cc3cc(F)cc(F)c3)NC(=O)Cn3nc(C(F)F)c4c3C(F)(F)[C@@H]3C[C@H]43)nc3ncccc3c2=O)cc1 [Example 10.35] | 1.7 | 1900 |  |  |
| O=C(Cn1nc(C(F)F)c2c1C(F)(F)[C@@H]1C[C@H]21)N[C@@H](Cc1cc(F)cc(F)c1)c1nc2cn[nH]c2cc1-c1ccc2ccnn2c1 [Example 10.36, 2-((3bS,4aR)-3-(difluoromethyl)-5,5-difluoro-3b,4,4a,5-tetrahydro-1H-cyclopropa[3,4]cyclopenta[1,2-c]pyrazol-1-yl)-N—((S)-2-(3,5-difluorophenyl)-1-(6-(pyrazolo[1,5-a]pyridin-6-yl)-1H-pyrazolo[4,3-b]pyridin-5-yl)ethyl)acetamide] | 80 | > 10000 |  |  |
| CC(C)c1ccc(-n2c([C@H](Cc3cc(F)cc(F)c3)NC(=O)Cn3nc(C(F)F)c4c3C(F)(F)[C@@H]3C[C@H]43)nc3ncccc3c2=O)cn1 [Example 10.37] | 4.8 | 6900 |  |  |
| O=C(Cn1nc(C(F)F)c2c1C(F)(F)[C@@H]1C[C@H]21)N[C@@H](Cc1cc(F)cc(F)c1)c1nc2ncccc2c(=O)n1-c1ccc(S(=O)(=O)N2CCOCC2)cc1 [Example 10.38] | 0.204 | > 10000 |  |  |
| Cn1nc(NS(C)(=O)=O)c2c(Cl)ccc(-n3c([C@H](Cc4cc(F)cc(F)c4)NC(=O)Cn4ccc(C5CC5)n4)nc4ncccc4c3=O)c21 [Example 15, (S)—N-(1-(3-(4-chloro-1-methyl-3-(methylsulfonamido)-1H-indazol-7-yl)-4-oxo-3,4-dihydropyrido[2,3-d]pyrimidin-2-yl)-2-(3,5-difluorophenyl)ethyl)-2-(3-cyclopropyl-1H-pyrazol-1-yl)acetamide] | 320 | > 1000 |  |  |
| Cn1nc(NS(C)(=O)=O)c2c(Cl)ccc(-n3c([C@H](Cc4cc(F)cc(F)c4)NC(=O)Cn4nc(C(F)F)c5c4C(F)(F)[C@@H]4C[C@H]54)nc4cc(F)ccc4c3=O)c21 [Example 18, N—((S)-1-(3-(4-chloro-1-methyl-3-(methylsulfonamido)-1H-indazol-7-yl)-7-fluoro-4-oxo-3,4-dihydroquinazolin-2-yl)-2-(3,5-difluorophenyl)ethyl)-2-((3bS,4aR)-3-(difluoromethyl)-5,5-difluoro-3b,4,4a,5-tetrahydro-1H-cyclopropa[3,4]cyclopenta[1,2-c]pyrazol-1-yl)acetamide] | 36 | > 10000 |  |  |
| CN1Cc2ccc(-c3cc4[nH]ncc4nc3[C@H](Cc3cc(F)cc(F)c3)NC(=O)Cn3nc(C(F)F)c4c3C(F)(F)[C@@H]3C[C@H]43)cc2C1=O [Example 23, 2-((3bS,4aR)-3-(difluoromethyl)-5,5-difluoro-3b,4,4a,5-tetrahydro-1H-cyclopropa[3,4]cyclopenta[1,2-c]pyrazol-1-yl)-N—((S)-2-(3,5-difluorophenyl)-1-(6-(2-methyl-3-oxoisoindolin-5-yl)-1H-pyrazolo[4,3-b]pyridin-5-yl)ethyl)acetamide] |  |  | 21.8 | 10000 |
| NS(=O)(=O)c1ccc(-c2cc3[nH]ncc3nc2[C@H](Cc2cc(F)cc(F)c2)NC(=O)Cn2nc(C(F)F)c3c2C(F)(F)[C@@H]2C[C@H]32)cc1 [Example 24, 2-((3bS,4aR)-3-(difluoromethyl)-5,5-difluoro-3b,4,4a,5-tetrahydro-1H-cyclopropa[3,4]cyclopenta[1,2-c]pyrazol-1-yl)-N—((S)-2-(3,5-difluorophenyl)-1-(6-(4-sulfamoylphenyl)-1H-pyrazolo[4,3-b]pyridin-5-yl)ethyl)acetamide] |  |  | 1370 | > 10000 |
| O=C(Cn1nc(C(F)F)c2c1C(F)(F)[C@@H]1C[C@H]21)N[C@@H](Cc1cc(F)cc(F)c1)c1nc2cn[nH]c2cc1-c1ccc(S(=O)(=O)N2CCOCC2)cc1 [Example 25, 2-((3bS,4aR)-3-(difluoromethyl)-5,5-difluoro-3b,4,4a,5-tetrahydro-1H-cyclopropa[3,4]cyclopenta[1,2-c]pyrazol-1-yl)-N—((S)-2-(3,5-difluorophenyl)-1-(6-(4-(morpholinosulfonyl)phenyl)-1H-pyrazolo[4,3-b]pyridin-5-yl)ethyl)acetamide] |  |  | 5.78 | 7940 |
| CN(C)S(=O)(=O)c1ccc(-c2cc3[nH]ncc3nc2[C@H](Cc2cc(F)cc(F)c2)NC(=O)Cn2nc(C(F)F)c3c2C(F)(F)[C@@H]2C[C@H]32)cc1 [Example 26, 2-((3bS,4aR)-3-(difluoromethyl)-5,5-difluoro-3b,4,4a,5-tetrahydro-1H-cyclopropa[3,4]cyclopenta[1,2-c]pyrazol-1-yl)-N—((S)-2-(3,5-difluorophenyl)-1-(6-(4-(N,N-dimethylsulfamoyl)phenyl)-1H-pyrazolo[4,3-b]pyridin-5-yl)ethyl)acetamide] |  |  | 18.7 | 5010 |
| O=C(Cn1nc(C(F)F)c2c1C(F)(F)[C@@H]1C[C@H]21)N[C@@H](Cc1cc(F)cc(F)c1)c1nc2cn[nH]c2cc1-c1ccc(S(=O)(=O)N2CCSCC2)cc1 [Example 27, 2-((3bS,4aR)-3-(difluoromethyl)-5,5-difluoro-3b,4,4a,5-tetrahydro-1H-cyclopropa[3,4]cyclopenta[1,2-c]pyrazol-1-yl)-N—((S)-2-(3,5-difluorophenyl)-1-(6-(4-(thiomorpholinosulfonyl)phenyl)-1H-pyrazolo[4,3-b]pyridin-5-yl)ethyl)acetamide] |  |  | 4.94 | 5010 |
| CN1CCN(S(=O)(=O)c2ccc(-c3cc4[nH]ncc4nc3[C@H](Cc3cc(F)cc(F)c3)NC(=O)Cn3nc(C(F)F)c4c3C(F)(F)[C@@H]3C[C@H]43)cc2)CC1 [Example 28, 2-((3bS,4aR)-3-(difluoromethyl)-5,5-difluoro-3b,4,4a,5-tetrahydro-1H-cyclopropa[3,4]cyclopenta[1,2-c]pyrazol-1-yl)-N—((S)-2-(3,5-difluorophenyl)-1-(6-(4-((4-methylpiperazin-1-yl)sulfonyl)phenyl)-1H-pyrazolo[4,3-b]pyridin-5-yl)ethyl)acetamide] |  |  | 19.9 | > 10000 |
| COc1ccc(-n2c([C@H](Cc3cc(F)cc(F)c3)NC(=O)Cn3nc(C(F)F)c4c3C(F)(F)[C@@H]3C[C@H]43)nc3ncccc3c2=O)cn1 [Example 29, 2-[(2S,4R)-9-(difluoromethyl)-5,5-difluoro-7,8-diazatricyclo[4.3.0.0^2,4]nona-1(6),8-dien-7-yl]-N-[(1S)-2-(3,5-difluorophenyl)-1-[3-(6-methoxypyridin-3-yl)-4-oxo-3H,4H-pyrido[2,3-d]pyrimidin-2-yl]ethyl]acetamide] |  |  | 26 | > 10000 |
| O=C(Cn1nc(C(F)F)c2c1C(F)(F)[C@@H]1C[C@H]21)N[C@@H](Cc1cc(F)cc(F)c1)c1nc2ncccc2c(=O)n1-c1ccc(OC(F)F)cc1 [Example 30, N-[(1S)-1-{3-[4-(difluoromethoxy)phenyl]-4-oxo-3H,4H-pyrido[2,3-d]pyrimidin-2-yl}-2-(3,5-difluorophenyl)ethyl]-2-[(2S,4R)-9-(difluoromethyl)-5,5-difluoro-7,8-diazatricyclo[4.3.0.0^2,4]nona-1(6),8-dien-7-yl]acetamide] |  |  | 5.03 | 3160 |
